In ChEMBL document CHEMBL1151992, “Arenamides A-C, cytotoxic NFkappaB inhibitors from the marine actinomycete Salinispora arenicola” (J Nat Prod, 2009) one finds Activity and IC50 data, which are given here for 4 molecules.

One series relates to Candida albicans. Briefly: Antimicrobial activity against amphotericin-resistant Candida albicans. The class given is functional, organism-based.
The test system of another series is Staphylococcus aureus. Kind of series: Antimicrobial activity against methicillin-resistant Staphylococcus aureus. The class given is functional, organism-based.
The next series concerns Enterococcus faecium. Briefly: Antimicrobial activity against vancomycin-resistant Enterococcus faecium. The class given is functional, organism-based.
Series [1] deals with RAW264.7. Briefly: Antiinflammatory activity in mouse RAW264.7 cells assessed as inhibition of LPS-stimulated PGE2 production at 3 to 10 uM treated 30 mins prior to LPS challenge measured after 24 hrs by ELISA. Details: scale not given: the % may be the effect or the level left. The class given is functional. A general note: In an ELISA, binding on a coated surface is turned into a signal by an enzyme label.

Series [2] concerns RAW264.7. Briefly: Antiinflammatory activity in mouse RAW264.7 cells assessed as inhibition of LPS-stimulated nitric oxide production at 3 to 10 uM treated 30 mins prior to LPS challenge measured after 24 hrs by Griess reagent method. Further details: scale not given: the % may be the effect or the level left. The class given is functional.
The test system of series [3] is RAW264.7. Briefly: Antiinflammatory activity in mouse RAW264.7 cells assessed as inhibition of LPS-stimulated nitric oxide production treated 30 mins prior to LPS challenge measured after 24 hrs by Griess reagent method. The class given is functional, cell-based. A general note: The Griess reaction detects nitrite, a stable product of nitric oxide.
A further series relates to HCT-116. Kind of series: Cytotoxicity against human HCT116 cells. The class given is functional, cell-based.
Series [4] in a line: Inhibition of TNF-induced NF-kappaB activation transfected in HEK293 cells by luciferase reporter gene assay. The class given is cell-based.
Series [5] relates to RAW264.7. Kind of series: Cytotoxicity against mouse RAW264.7 cells at 3 to 10 uM by sulforhodamine B assay. The class given is cell-based. The note with it: raw264.7, 10 µM.

Each structure is given as a SMILES string. Converted amounts (≈) assume the structure as drawn. The source made the active and inactive calls. The calls are words filed in the database; no cut-off is given here.

Consider `CCCCCC[C@@H](C)[C@H](O)CC(=O)NCC(=O)N[C@H](C(=O)C[C@@H](CC(C)C)C(=O)N[C@@H](C)C(=O)N[C@@H](Cc1ccccc1)C(=O)OC)C(C)C`, for which the result in the series with Candida albicans, in the series on Staphylococcus aureus and with Enterococcus faecium was inactive.

For the molecule `CCCCCC[C@H](C)[C@@H]1CC(=O)NCC(=O)N[C@@H](C(C)C)C(=O)N[C@@H](CC(C)C)C(=O)N[C@@H](C)C(=O)N[C@@H](CCSC)C(=O)O1`, the outcome with Candida albicans, in the series with Staphylococcus aureus and with Enterococcus faecium was inactive.

A word on the IC50: it is the concentration that inhibits the measured activity by half. Take `CCCCCC[C@H](C)[C@@H]1CC(=O)NCC(=O)N[C@@H](C(C)C)C(=O)N[C@@H](CC(C)C)C(=O)N[C@@H](C)C(=O)N[C@@H](Cc2ccccc2)C(=O)O1` [ARENAMIDE A]: the outcome with Candida albicans, in the series with Staphylococcus aureus and in the series with Enterococcus faecium was inactive. The Activity is 50% with RAW264.7 [1], 35% with RAW264.7 [2], “Dose-dependent effect” in the series with RAW264.7 [3] and “Non-toxic” in the series with RAW264.7 [5]. Moreover, the values for the IC50 (with HCT-116; in series [4]) were 13.2 µg/mL (≈ 19.6 µM) and 3700 nM, respectively.

As for `CCCC[C@H](C)[C@@H]1CC(=O)NCC(=O)N[C@@H](C(C)C)C(=O)N[C@@H](CC(C)C)C(=O)N[C@@H](C)C(=O)N[C@@H](Cc2ccccc2)C(=O)O1` [ARENAMIDE B], the result in the series on Candida albicans, in the series on Staphylococcus aureus and with Enterococcus faecium was inactive. Moreover, the Activity with RAW264.7 [1] is 50%; in the series on RAW264.7 [2], 35%; in the series on RAW264.7 [3], “Dose-dependent effect”; in the series with RAW264.7 [5] it was “Non-toxic”. For the same molecule, the values for the half-maximal inhibitory concentration (IC50) (in the series with HCT-116; in series [4]) were 19.2 µg/mL (≈ 29.8 µM) and 1700 nM, respectively.
